Test results from the OligoGym collection.
HELM strings list units from the 5' end as sugar, base in round brackets, then linkage (d deoxyribose, r ribose, m 2'-O-methyl, p phosphodiester). Strings are as the collection lists them; they lack the last nucleoside at the 3' end of the tested compound. [moe] = 2'-O-(2-methoxyethyl) (MOE); [sp] = phosphorothioate linkage; [m5C] = 5-methylcytosine

Target: UBE3A-ATS
Assay: mouse, dose not given
Settings: ASO

Substance “RNA1{[moe](G)[sp].[moe](A)p.[moe](G)p.[moe](A)p.[moe](A)p.d([m5C])[sp].d([m5C])[sp].d([m5C])[sp].d(A)[sp].d([m5C])[sp].d(T)[sp].d(T)[sp].d(G)[sp].d(A)[sp].d(T)[sp].[moe]([m5C])p.[moe](T)p.[moe](A)[sp].[moe](T)}$$$$ (last 3' nucleoside missing)” has a 3 h FOB score of 3 score 0-7.

In the case of “RNA1{[moe](G)[sp].[moe](A)p.[moe](G)p.[moe](A)p.[moe](T)p.d(A)[sp].d(G)[sp].d(A)[sp].d(A)[sp].d([m5C])[sp].d(A)[sp].d([m5C])[sp].d(T)[sp].d(T)[sp].d([m5C])[sp].[moe](G)p.[moe]([m5C])p.[moe]([m5C])[sp].[moe](G)}$$$$ (last 3' nucleoside missing)”, the 3 h FOB score was 5 score 0-7.

“RNA1{[moe](G)[sp].[moe](A)p.[moe](G)p.[moe](A)p.[moe]([m5C])p.d(A)[sp].d(T)[sp].d(G)[sp].d(T)[sp].d(G)[sp].d([m5C])[sp].d([m5C])[sp].d(A)[sp].d(G)[sp].d(T)[sp].[moe](T)p.[moe]([m5C])p.[moe](A)[sp].[moe](A)}$$$$ (last 3' nucleoside missing)” gave a 3 h FOB score of 6 score 0-7.

In the case of “RNA1{[moe](G)[sp].[moe](A)p.[moe](G)p.[moe](T)p.[moe](A)p.d(G)[sp].d(T)[sp].d([m5C])[sp].d(T)[sp].d(A)[sp].d(T)[sp].d(T)[sp].d(G)[sp].d(G)[sp].d(T)[sp].[moe](G)p.[moe](T)p.[moe](T)[sp].[moe]([m5C])}$$$$ (last 3' nucleoside missing)”, the 3 h FOB score was 5.5 score 0-7.

Substance “RNA1{[moe](G)[sp].[moe](A)p.[moe](G)p.[moe](T)p.[moe](A)p.d(T)[sp].d(A)[sp].d(T)[sp].d(T)[sp].d(A)[sp].d([m5C])[sp].d([m5C])[sp].d(T)[sp].d([m5C])[sp].d([m5C])[sp].[moe](A)p.[moe](G)p.[moe](G)[sp].[moe](T)}$$$$ (last 3' nucleoside missing)” has a 3 h FOB score of 1 score 0-7.

“RNA1{[moe](G)[sp].[moe](A)p.[moe](G)p.[moe]([m5C])[sp].d(T)[sp].d(A)[sp].d(T)[sp].d([m5C])[sp].d(T)[sp].d(G)[sp].d(T)[sp].d(A)[sp].[moe]([m5C])p.[moe](A)p.[moe](A)p.[moe](A)[sp].[moe](A)}$$$$ (last 3' nucleoside missing)” showed a 3 h FOB score of 3.3 score 0-7.

Work on “RNA1{[moe](G)[sp].[moe](A)p.[moe](G)p.[moe]([m5C])p.[moe](A)p.d(T)[sp].d(T)[sp].d(G)[sp].d(G)[sp].d([m5C])[sp].d(T)[sp].d(T)[sp].d([m5C])[sp].d(A)[sp].d(T)[sp].[moe](A)p.[moe](T)p.[moe](T)[sp].[moe](T)}$$$$ (last 3' nucleoside missing)” yielded a 3 h FOB score of 1 score 0-7.

In the case of “RNA1{[moe](G)[sp].[moe](A)p.[moe](G)p.[moe]([m5C])p.[moe](T)[sp].d(A)[sp].d(T)[sp].d([m5C])[sp].d(T)[sp].d(G)[sp].d(T)[sp].d(A)[sp].d([m5C])[sp].[moe](A)p.[moe](A)p.[moe](A)[sp].[moe](A)}$$$$ (last 3' nucleoside missing)”, the 3 h FOB score was 6 score 0-7.

“RNA1{[moe](G)[sp].[moe](A)p.[moe](G)p.[moe]([m5C])p.[moe](T)p.[moe](A)[sp].d(T)[sp].d([m5C])[sp].d(T)[sp].d(G)[sp].d(T)[sp].d(A)[sp].d([m5C])[sp].d(A)[sp].[moe](A)p.[moe](A)[sp].[moe](A)}$$$$ (last 3' nucleoside missing)” was tested, and the 3 h FOB score was 4.7 score 0-7.

“RNA1{[moe](G)[sp].[moe](A)p.[moe](G)p.[moe]([m5C])p.[moe](T)p.[moe](A)p.d(T)[sp].d([m5C])[sp].d(T)[sp].d(G)[sp].d(T)[sp].d(A)[sp].d([m5C])[sp].d(A)[sp].d(A)[sp].d(A)[sp].[moe](A)p.[moe](T)[sp].[moe](G)}$$$$ (last 3' nucleoside missing)” was tested, and the 3 h FOB score was 5.2 score 0-7.

Work on “RNA1{[moe](G)[sp].[moe](A)p.[moe](G)p.[moe]([m5C])p.[moe](T)p.d(A)[sp].d(T)[sp].d([m5C])[sp].d(T)[sp].d(G)[sp].d(T)[sp].d(A)[sp].d([m5C])[sp].d(A)[sp].d(A)[sp].[moe](A)p.[moe](A)p.[moe](T)[sp].[moe](G)}$$$$ (last 3' nucleoside missing)” yielded a 3 h FOB score of 6.7 score 0-7.

For “RNA1{[moe](G)[sp].[moe](A)p.[moe](G)p.[moe]([m5C])p.d(T)[sp].d(A)[sp].d(T)[sp].d([m5C])[sp].d(T)[sp].d(G)[sp].d(T)[sp].d(A)[sp].d([m5C])[sp].d(A)[sp].[moe](A)p.[moe](A)p.[moe](A)p.[moe](T)[sp].[moe](G)}$$$$ (last 3' nucleoside missing)”, the 3 h FOB score was 4.7 score 0-7.

“RNA1{[moe](G)[sp].[moe](A)p.[moe](T)p.[moe](A)p.[moe](G)p.d(G)[sp].d(G)[sp].d(T)[sp].d(T)[sp].d(T)[sp].d(A)[sp].d(G)[sp].d(G)[sp].d(T)[sp].d([m5C])[sp].[moe](A)p.[moe](A)p.[moe]([m5C])[sp].[moe]([m5C])}$$$$ (last 3' nucleoside missing)” gave a 3 h FOB score of 5 score 0-7.

“RNA1{[moe](G)[sp].[moe](A)p.[moe](T)p.[moe](T)p.[moe](A)p.d(T)[sp].d([m5C])[sp].d(T)[sp].d([m5C])[sp].d(A)[sp].d(G)[sp].d(A)[sp].d([m5C])[sp].d(A)[sp].d(T)[sp].[moe](G)p.[moe]([m5C])p.[moe]([m5C])[sp].[moe](A)}$$$$ (last 3' nucleoside missing)” gave a 3 h FOB score of 3.2 score 0-7.

Work on “RNA1{[moe](G)[sp].[moe](A)p.[moe](T)p.[moe](T)p.[moe](G)p.d(A)[sp].d(T)[sp].d([m5C])[sp].d(A)[sp].d(T)[sp].d(G)[sp].d(T)[sp].d(T)[sp].d(A)[sp].d(T)[sp].[moe](G)p.[moe]([m5C])p.[moe]([m5C])[sp].[moe]([m5C])}$$$$ (last 3' nucleoside missing)” yielded a 3 h FOB score of 2 score 0-7.

“RNA1{[moe](G)[sp].[moe](A)p.[moe](T)p.[moe](T)p.[moe](G)p.d(A)[sp].d([m5C])[sp].d(T)[sp].d(A)[sp].d([m5C])[sp].d(T)[sp].d(T)[sp].d([m5C])[sp].d(A)[sp].d(A)[sp].[moe]([m5C])p.[moe]([m5C])p.[moe](T)[sp].[moe](G)}$$$$ (last 3' nucleoside missing)” was tested, and the 3 h FOB score was 1.3 score 0-7.

Substance “RNA1{[moe](G)[sp].[moe](A)p.[moe](T)p.[moe](T)p.[moe](T)p.d(T)[sp].d(A)[sp].d(T)[sp].d(T)[sp].d(G)[sp].d(G)[sp].d(T)[sp].d([m5C])[sp].d(A)[sp].d(T)[sp].[moe]([m5C])p.[moe](T)p.[moe]([m5C])[sp].[moe](G)}$$$$ (last 3' nucleoside missing)” has a 3 h FOB score of 6.8 score 0-7.

“RNA1{[moe](G)[sp].[moe](A)p.[moe](T)p.[moe](T)p.[moe](T)p.d([m5C])[sp].d([m5C])[sp].d(T)[sp].d(T)[sp].d(A)[sp].d([m5C])[sp].d(T)[sp].d(G)[sp].d(A)[sp].d(G)[sp].[moe](T)p.[moe](G)p.[moe](A)[sp].[moe](G)}$$$$ (last 3' nucleoside missing)” was tested, and the 3 h FOB score was 1 score 0-7.

With “RNA1{[moe](G)[sp].[moe](A)p.[moe](T)p.[moe](T)p.[moe]([m5C])p.d(A)[sp].d(A)[sp].d(T)[sp].d(A)[sp].d(G)[sp].d(T)[sp].d(G)[sp].d(T)[sp].d(A)[sp].d(G)[sp].[moe](G)p.[moe](T)p.[moe](G)[sp].[moe](A)}$$$$ (last 3' nucleoside missing)” the 3 h FOB score was 3.3 score 0-7.

For “RNA1{[moe](G)[sp].[moe](A)p.[moe](T)p.[moe]([m5C])[sp].d(A)[sp].d([m5C])[sp].d(A)[sp].d(T)[sp].d(T)[sp].d(A)[sp].d([m5C])[sp].d([m5C])[sp].[moe]([m5C])p.[moe](A)p.[moe](T)p.[moe]([m5C])[sp].[moe]([m5C])}$$$$ (last 3' nucleoside missing)”, the 3 h FOB score was 0 score 0-7.

“RNA1{[moe](G)[sp].[moe](A)p.[moe](T)p.[moe]([m5C])p.[moe](A)[sp].d([m5C])[sp].d(A)[sp].d(T)[sp].d(T)[sp].d(A)[sp].d([m5C])[sp].d([m5C])[sp].d([m5C])[sp].[moe](A)p.[moe](T)p.[moe]([m5C])[sp].[moe]([m5C])}$$$$ (last 3' nucleoside missing)” was tested, and the 3 h FOB score was 2 score 0-7.

With “RNA1{[moe](G)[sp].[moe](A)p.[moe](T)p.[moe]([m5C])p.[moe](A)p.[moe]([m5C])[sp].d(A)[sp].d(T)[sp].d(T)[sp].d(A)[sp].d([m5C])[sp].d([m5C])[sp].d([m5C])[sp].d(A)[sp].[moe](T)p.[moe]([m5C])[sp].[moe]([m5C])}$$$$ (last 3' nucleoside missing)” the 3 h FOB score was 0 score 0-7.

In the case of “RNA1{[moe](G)[sp].[moe](A)p.[moe](T)p.[moe]([m5C])p.[moe](A)p.[moe]([m5C])p.d(A)[sp].d(T)[sp].d(T)[sp].d(A)[sp].d([m5C])[sp].d([m5C])[sp].d([m5C])[sp].d(A)[sp].d(T)[sp].d([m5C])[sp].[moe]([m5C])p.[moe](G)[sp].[moe](T)}$$$$ (last 3' nucleoside missing)”, the 3 h FOB score was 0 score 0-7.

“RNA1{[moe](G)[sp].[moe](A)p.[moe](T)p.[moe]([m5C])p.[moe](A)p.d(T)[sp].d(G)[sp].d(T)[sp].d(G)[sp].d([m5C])[sp].d(A)[sp].d(T)[sp].d(A)[sp].d([m5C])[sp].d([m5C])[sp].[moe]([m5C])p.[moe](A)p.[moe](G)[sp].[moe](G)}$$$$ (last 3' nucleoside missing)” showed a 3 h FOB score of 5.7 score 0-7.

Work on “RNA1{[moe](G)[sp].[moe](A)p.[moe](T)p.[moe]([m5C])p.[moe](A)p.d([m5C])[sp].d(A)[sp].d(T)[sp].d(T)[sp].d(A)[sp].d([m5C])[sp].d([m5C])[sp].d([m5C])[sp].d(A)[sp].d(T)[sp].[moe]([m5C])p.[moe]([m5C])p.[moe](G)[sp].[moe](T)}$$$$ (last 3' nucleoside missing)” yielded a 3 h FOB score of 0 score 0-7.

With “RNA1{[moe](G)[sp].[moe](A)p.[moe](T)p.[moe]([m5C])p.[moe](T)p.d(T)[sp].d(G)[sp].d(G)[sp].d(T)[sp].d(A)[sp].d(A)[sp].d(G)[sp].d(G)[sp].d([m5C])[sp].d(A)[sp].[moe](G)p.[moe]([m5C])p.[moe](T)[sp].[moe]([m5C])}$$$$ (last 3' nucleoside missing)” the 3 h FOB score was 6.8 score 0-7.
